In patent US7326721B2 (Hypnion, Inc., priority 2003, dated 2008):
Where “and” joins values, the source holds several entries; their conditions need not be identical. Equal values may be shown once. Read-outs that look alike come from different tables or passages of the source.

Experiments:
[1] = test system: adult male Wistar rats; assay: SCORE-2000 sleep-wakefulness, locomotor activity and body temperature monitoring; assay type: in vivo, rat
[2] = target: T1, M2 muscarinic receptor (Homo sapiens, UniProt P08172); assay: Muscarinic M2 binding assay; set-up: purchased PerkinElmer, Inc., Wellesley, Mass; host or cells: CHO cells; conditions: read-out: Ki M2
T1 sequence (P08172 1-466): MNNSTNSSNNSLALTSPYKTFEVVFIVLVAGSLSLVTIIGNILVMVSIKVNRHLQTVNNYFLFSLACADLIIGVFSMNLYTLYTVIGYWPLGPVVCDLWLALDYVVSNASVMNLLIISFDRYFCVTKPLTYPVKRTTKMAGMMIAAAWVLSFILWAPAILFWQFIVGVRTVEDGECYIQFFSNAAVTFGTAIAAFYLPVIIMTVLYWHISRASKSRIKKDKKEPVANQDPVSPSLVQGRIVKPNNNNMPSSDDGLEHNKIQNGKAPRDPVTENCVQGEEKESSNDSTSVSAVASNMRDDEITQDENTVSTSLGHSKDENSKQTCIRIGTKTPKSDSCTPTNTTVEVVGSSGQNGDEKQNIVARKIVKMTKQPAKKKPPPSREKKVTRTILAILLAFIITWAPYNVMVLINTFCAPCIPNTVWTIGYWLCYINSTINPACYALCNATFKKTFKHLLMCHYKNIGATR

[3] = target: hERG (Homo sapiens, UniProt Q12809)
Chain of hERG (Q12809 whole entry): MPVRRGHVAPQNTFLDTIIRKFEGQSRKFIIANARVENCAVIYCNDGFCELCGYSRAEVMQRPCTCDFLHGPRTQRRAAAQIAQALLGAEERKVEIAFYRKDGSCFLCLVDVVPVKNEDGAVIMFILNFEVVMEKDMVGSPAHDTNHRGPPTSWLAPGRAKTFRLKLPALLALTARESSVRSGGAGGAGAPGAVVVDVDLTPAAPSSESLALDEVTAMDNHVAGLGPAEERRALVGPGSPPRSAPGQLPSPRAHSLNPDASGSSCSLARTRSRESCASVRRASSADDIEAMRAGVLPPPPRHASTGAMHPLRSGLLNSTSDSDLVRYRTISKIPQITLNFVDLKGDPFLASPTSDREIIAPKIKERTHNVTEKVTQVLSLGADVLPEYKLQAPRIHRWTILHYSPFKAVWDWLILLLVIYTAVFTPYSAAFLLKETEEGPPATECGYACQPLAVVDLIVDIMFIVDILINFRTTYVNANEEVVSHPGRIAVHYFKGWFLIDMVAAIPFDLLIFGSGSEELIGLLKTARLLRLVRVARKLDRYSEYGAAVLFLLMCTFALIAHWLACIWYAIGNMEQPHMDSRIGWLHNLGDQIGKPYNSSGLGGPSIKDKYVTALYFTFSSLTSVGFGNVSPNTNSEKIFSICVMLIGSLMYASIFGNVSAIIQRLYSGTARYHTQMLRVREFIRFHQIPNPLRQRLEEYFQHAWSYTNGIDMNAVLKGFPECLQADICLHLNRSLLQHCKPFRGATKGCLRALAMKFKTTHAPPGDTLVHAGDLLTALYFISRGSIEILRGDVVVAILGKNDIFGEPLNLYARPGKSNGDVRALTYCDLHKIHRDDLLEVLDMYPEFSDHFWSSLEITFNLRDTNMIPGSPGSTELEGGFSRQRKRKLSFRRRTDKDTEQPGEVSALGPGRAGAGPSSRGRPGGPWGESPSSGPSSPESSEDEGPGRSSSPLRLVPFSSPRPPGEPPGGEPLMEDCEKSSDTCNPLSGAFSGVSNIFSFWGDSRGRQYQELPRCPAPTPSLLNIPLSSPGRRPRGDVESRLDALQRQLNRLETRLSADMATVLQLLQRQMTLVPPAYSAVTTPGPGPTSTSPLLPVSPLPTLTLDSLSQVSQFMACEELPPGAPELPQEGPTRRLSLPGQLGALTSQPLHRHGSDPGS

[4] = target: M3 muscarinic receptor (Homo sapiens, UniProt P20309); assay: Muscarinic M3 binding assay; set-up: purchased PerkinElmer, Inc., Wellesley, Mass; host or cells: CHO cells; conditions: read-out: Ki M3
Chain of M3 muscarinic receptor (P20309 whole entry): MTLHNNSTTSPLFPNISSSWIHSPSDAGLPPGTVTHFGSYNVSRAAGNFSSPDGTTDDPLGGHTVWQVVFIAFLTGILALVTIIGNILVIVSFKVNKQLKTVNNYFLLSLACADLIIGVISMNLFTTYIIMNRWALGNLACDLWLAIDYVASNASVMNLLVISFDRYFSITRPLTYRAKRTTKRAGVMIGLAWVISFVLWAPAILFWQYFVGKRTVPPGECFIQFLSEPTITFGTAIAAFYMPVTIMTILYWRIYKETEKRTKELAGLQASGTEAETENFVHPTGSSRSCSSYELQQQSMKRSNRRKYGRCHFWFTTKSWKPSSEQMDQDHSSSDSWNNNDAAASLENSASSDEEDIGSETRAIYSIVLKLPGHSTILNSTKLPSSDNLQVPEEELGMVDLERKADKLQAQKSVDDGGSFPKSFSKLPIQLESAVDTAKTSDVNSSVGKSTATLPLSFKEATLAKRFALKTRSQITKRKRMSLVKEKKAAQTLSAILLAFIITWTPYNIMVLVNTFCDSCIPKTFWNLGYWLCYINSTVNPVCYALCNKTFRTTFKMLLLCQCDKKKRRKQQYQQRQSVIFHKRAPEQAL

[5] = test system: male Wistar rats; assay type: in vivo
Method: The Irwin screen can provide useful information on potential side effects of compounds on general physiological and behavioural functions. The screen was conducted by administering the test compounds orally in 0.25% aqueous methylcellulose using male Wistar rats, a frequently used species in such studies and for which background data are readily available.
The Irwin screen tests for numerous parameters in animals that have been administered the test compound. For example, the screen can include: in-cage effects, e.g., dispersion, respiratory rate, locomotor activity, restlessness, fighting, alertness, apathy, and exophthalmus; in-arena effects, e.g., transfer arousal, spatial locomotion, ptosis, startle, tail elevation, piloerection, touch escape, positional passivity, catalepsy, tighting reflex, visual placing, grip strength, pinna, corneal, pain response, and wire manoeuvre; parameters observed in handling, e.g., cyanosis, cutaneous blood flow, hypothermia, body tone, pupil size, light-pupil response, lacrimation, grooming, red staining, salivation, and provoked biting; general scores e.g., fearfulness, irritability, abnormal gait, abnormal body carriage, tremors, twitches, convulsions, bizarre behaviour, writhing, vocalisation, diarrhoea, number of defaecations, number of urinations, moribund, lethality, and abnormalities detected. Further details can be found in Irwin, S; Comprehensive observational assessment: I a. A systematic, quantitative procedure for assessing the behavioural and physiological state of the mouse.
Irwin screening of the disclosed sleep-inducing agents was performed by Covance (Princeton, N.J.) according to Irwin, above; Covance Standard Operating Procedure (current revision of SOP PHARM 8.10); relevant regulatory authority guidelines ICH (International Committee for Harmonization) Guideline (Topic S7A; CPMP/ICH/539/00) on Safety Pharmacology Studies for human pharmaceuticals (November 2000); and all procedures carried out on live animals were subject to the provisions of United Kingdom Law, in particular the Animals (Scientific Procedures) Act, 1986. which obliges all UK laboratories to maintain a local ethical review process to ensure that all animal use in the establishment is carefully considered and justified; that proper account is taken of all possibilities for reduction, refinement or replacement and that high standards of accommodation and care are achieved.
All test compound formulations were prepared on the day of dosing by Covance Harrogate Dispensary. The test compounds were formulated in 0.25% aqueous methylcellulose at the highest concentration required. Lower doses were obtained by serial dilution of the highest concentration using 0.25% aqueous methylcellulose. Dose levels are expressed in terms of the amount of test compound administered without regard to purity or active content. All formulations were stored at room temperature (nominally 10 to 30° C.) in sealed containers and protected from light.
An adequate number of male Wistar (Crl:WI(Glx/BRL/Han) BR:WH) rats were obtained from Charles River Ltd. (Margate, Kent, United Kingdom). The rats were approximately 5 weeks of age and weighed between 150 and 170 g on arrival. The animals were housed in groups of no more than six in polypropylene cages (33×15×13 cm) or (45×28×20 cm) with solid floors and Grade 10 woodflakes (Datesand Ltd., Cheshire, United Kingdom) as bedding. The cages were cleaned and dried before use. Aspen chew blocks were placed within the cages as a form of environmental enrichment. Routinely, holding rooms were maintained within acceptable limits for temperature and relative humidity (nominally 19 to 25° C. and 40% to 70%, respectively). These rooms were illuminated by fluorescent light for 12 hours out of each 24 hour cycle and designed to receive at least 15 fresh air changes per hour. […]

[6] = target: T2, H1 histamine receptor (Bos taurus, UniProt P30546); assay: Histamine H1 competitive binding assay ([3H]pyrilamine); set-up: species or system bovine; conditions: read-out: Ki H1
T2 construct: the receptors were obtained from bovine cerebellar membrane tissue; from tissue; host or cells: bovine cerebellar membranes
T2 sequence (P30546 whole entry): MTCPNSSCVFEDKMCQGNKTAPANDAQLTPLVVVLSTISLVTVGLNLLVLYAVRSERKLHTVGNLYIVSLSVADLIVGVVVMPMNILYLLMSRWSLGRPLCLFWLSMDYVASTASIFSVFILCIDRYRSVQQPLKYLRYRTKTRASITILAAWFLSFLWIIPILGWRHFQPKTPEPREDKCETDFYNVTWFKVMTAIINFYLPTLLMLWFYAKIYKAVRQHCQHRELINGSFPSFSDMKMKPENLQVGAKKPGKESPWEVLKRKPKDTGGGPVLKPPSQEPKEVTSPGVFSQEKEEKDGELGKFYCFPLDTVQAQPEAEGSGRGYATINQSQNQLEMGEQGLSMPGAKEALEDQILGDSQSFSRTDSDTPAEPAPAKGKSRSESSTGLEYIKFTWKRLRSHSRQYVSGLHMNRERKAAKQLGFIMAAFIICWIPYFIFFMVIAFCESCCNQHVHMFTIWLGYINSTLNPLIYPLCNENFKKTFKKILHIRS

[7] = target: T3, M1 muscarinic receptor (Homo sapiens, UniProt P11229); assay: Muscarinic M1 binding assay ([3H]-scopolamine, N-methyl chloride); set-up: purchased PerkinElmer, Inc., Wellesley, Mass; host or cells: CHO cells; conditions: read-out: Ki M1
T3 sequence (P11229 1-460): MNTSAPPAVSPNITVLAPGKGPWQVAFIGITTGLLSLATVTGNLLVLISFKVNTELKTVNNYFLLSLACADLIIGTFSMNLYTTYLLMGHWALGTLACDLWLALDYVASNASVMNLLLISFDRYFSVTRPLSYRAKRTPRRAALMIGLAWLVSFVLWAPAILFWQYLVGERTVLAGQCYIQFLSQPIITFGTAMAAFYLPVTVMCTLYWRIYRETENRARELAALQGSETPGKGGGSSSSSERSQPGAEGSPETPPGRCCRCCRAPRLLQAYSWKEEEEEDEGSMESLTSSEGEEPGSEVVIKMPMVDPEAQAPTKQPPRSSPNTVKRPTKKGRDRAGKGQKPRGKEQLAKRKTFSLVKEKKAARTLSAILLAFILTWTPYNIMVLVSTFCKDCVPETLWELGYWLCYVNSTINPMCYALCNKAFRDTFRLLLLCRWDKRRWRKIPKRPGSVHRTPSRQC

Structure (SMILES)	LUSB ([1]; dose 30 mg/kg oral at CT-18) [min]	NREM ([1]; dose 30 mg/kg oral at CT-18) [min]	Ki [2]	Ki [4] [µM]	Irwin at mg/kg dose ([5]; 30 mg/kg oral)	Irwin at mg/kg dose ([5]; 100 mg/kg oral)	Irwin at mg/kg dose ([5]; rat, in vivo)	Ki [6] [µM]	Ki [7] [µM]	LUSB ([1]; dose 3 mg/kg oral at CT-18) [min]	NREM ([1]; dose 3 mg/kg oral at CT-18) [min]	LUSB ([1]; dose 10 mg/kg oral at CT-18) [min]	NREM ([1]; dose 10 mg/kg oral at CT-18) [min]	hERG at micromolar (% blocking of the hERG channel) ([3]; human, 10 µM, pH 7.4) [% @ 10]	further results
O=C(O)CN1CCC(=C2c3ccccc3COc3ccccc32)CC1 [Compound 71e]	4.1	34.5	5.13 µM	> 10	clean	many side effects	10, 30 clean; 100 many side effects	0.0607	12.1						hERG at micromolar (% blocking of the hERG channel) [3]: 3.6% @ 1
O=C(O)C1(CN2CCC(=C3c4ccc(F)cc4COc4ccccc43)CC2)CC1 [Compound 49b]	15.9	43.2	> 10 µM	> 10				0.0614	> 10	10.4	22.5	13.1	47.3	3.1	
O=C(O)C1(CN2CCC(=C3c4ccccc4COc4ccccc43)CC2)CC1 [Compound 69b]	14	41.6	> 10 µM	> 10			clean	0.0549	> 10	5.9	14.9	6.2	44.3	12.6	LUSB ([1]; dose 15 mg/kg oral at CT-18): 14.4 min; NREM ([1]; dose 15 mg/kg oral at CT-18): 43.4 min; LUSB ([1]; dose 20 mg/kg oral at CT-18): 11.6 min; NREM ([1]; dose 20 mg/kg oral at CT-18): 39.4 min
O=C(O)C1(CCN2CCC(=C3c4ccccc4COc4ccccc43)CC2)CC1 [Compound 70b]					clean	some side effects						8.3			hERG at micromolar (% blocking of the hERG channel) ([3]; concentration not given): 50.2%; Irwin at mg/kg dose ([5]; 10 mg/kg oral): clean
CC(C)(CCN1CCC(=C2c3ccccc3COc3ccccc32)CC1)C(=O)O [Compound 70a]	6	33.6	3.31 µM and 1.36 µM				clean	0.0368	0.811			3.7	13.2		LUSB ([1]; dose 45 mg/kg oral at CT-18): 12.1 min; NREM ([1]; dose 45 mg/kg oral at CT-18): 29.3 min; hERG at micromolar (% blocking of the hERG channel) ([3]; human, 1 µM, pH 7.4): 5.1% @ 1
O=C(O)C1(CN2CCC(=C3c4ccc(Cl)cc4COc4ccccc43)CC2)CC1 [Compound 51b]	128	60.4	> 10 µM	> 10				0.072	> 10	8.4	34.7	8.3	45	23	
CC(C)(CCN1CCC(=C2c3ccc(F)cc3COc3ccccc32)CC1)C(=O)O [Compound 61a]	10.1	45.8	> 10 µM	> 10				0.182	> 10	3.1	13.9	9.7	24	12.6	
CC(C)(CN1CCC(=C2c3ccc(Cl)cc3COc3ccccc32)CC1)C(=O)O [Compound 51a]	6.3	49.3	> 10 µM	> 10	some side effects	lethality		0.0264	> 10	8.8	32.1	18.2	60.3		hERG at micromolar (% blocking of the hERG channel) ([3]; human, pH 7.4): 40.6%; Irwin at mg/kg dose ([5]; 10 mg/kg oral): clean
O=C(O)CCCN1CCC(=C2c3ccccc3COc3ccccc32)CC1 [Compound 70e]	15	43.3	> 10 µM	> 10	clean	some side effects	10, 30 clean; 100 some side effects	0.136	> 10	6.6	25.7	6.6	27.4		hERG at micromolar (% blocking of the hERG channel) [3]: 2.7% @ 1
O=C(O)C1(CCN2CCC(=C3c4ccc(F)cc4COc4ccccc43)CC2)CC1 [Compound 61b]	9.7	57.4	3.09 µM	> 10				0.0122	0.569	3.6	11.3	14.6	34.8	85.9	
COc1ccc2c(c1)COc1ccc(F)cc1C2=C1CCN(CC(C)(C)C(=O)O)CC1 [Compound 47a]	10	56.9	> 10 µM	> 10				0.111	> 10	5.5	32.3	16.7	41.1	1	LUSB ([1]; dose 1 mg/kg oral at CT-18): 2.9 min; NREM ([1]; dose 1 mg/kg oral at CT-18): 5.5 min
